From US20100215696A1, “E[…] C VIRUS MUTANT, A HEPTITIS C VIRUS MUTANT […] GENE, A METHOD OF PREPARING OF HCV VACCINE USING THE SAME AND A METHOD OF SCREENING ANTI HCV COMPOSITION USING THE SAME” (priority 2007, published 2010)

Test system: JFH 5a-GFP
Experiment: Real time assessment of anti-viral activity in individual JFH 5a-GFP infected Huh 7.5.1 cells (time-lapse confocal GFP fluorescence)
Type: cell-based, hepatitis C virus
Details: 1000 IU/ml IFN-α, monitored every 12 hours up to 60 hours, FIGS. 13-16
Method: Huh 7.5.1 cells were infected with culture supernatant obtained from the transformant transfected with JFH 5a-GFP RNA (the transformant was transformed with the introduction of JFH 5a-GFP RNA via electroporation into Huh 7.5.1 cells, in Example 2-1).
After treating or mock-treating (i.e., no IFN-α treated) the transformant with IFN-α, GFP fluorescence was monitored every 12 hours up to 60 hours by using time-lapse confocal microscopy (Zeiss LSM 5 Live). For time-lapse imaging, coverslips were mounted onto the microscope stage, which was equipped with a temperature- and gas-controlled chamber (Chamide IC, Live Cell Instrument, Korea).
In addition, quantitative analyses of the fluorescence images of 8 cells were made by using MetaMorph software. The grouping of the figures was made depending on whether the cell was treated with IFN-α.
FIGS. 10 and 14 are graphs showing changing fluorescence levels in 8 transformants, in absolute values. FIGS. 11 and 15 are graphs showing changing fluorescence levels over time in 8 transformants, in relative values against the starting value, i.e., the value given to the transformants with no IFN-α treated.

Question: Interferon-alpha [IFN-α] was tested. Which “5a-GFP fluorescence intensities over time in 8 transformants” value did it give?
Answer: seven among eight transformants showed decreasing fluorescence intensities over time
